Laboratory results: paper PMC6332448, “SAR Studies Leading to the Identification of a Novel Series of Metallo-β-lactamase Inhibitors for the Treatment of Carbapenem-Resistant Enterobacteriaceae Infections That Display Efficacy in an Animal Infection Model” (ACS Infectious Diseases, 2018)
pIC50: −log10 of the molar value. Read-outs that look alike come from different tables or passages of the source.

Columns and labels:
[1] = target: NDM-1 (Klebsiella pneumoniae, UniProt C7C422); assay: biochemical; assay type: biochemical; details: for pIC50: 10 mM HEPES pH 7.5, 25 °C, average of at least two independent assays; for inhibition of NDM-1, in words: tested up to 200 μM
[2] = target: VIM-1 (Pseudomonas aeruginosa, UniProt A0A0F7KYQ8); assay: biochemical; assay type: biochemical; details: for inhibition of VIM-1, in words: tested up to 200 μM
[3] = target: IMP-1 (Serratia marcescens, UniProt P52699); assay: biochemical; assay type: biochemical; details: for inhibition of IMP-1, in words: tested up to 200 μM
[4] = target: VIM-2 (Escherichia coli, UniProt Q5U7L7); assay: biochemical
[5] = system: NDM-1-producing strain Escherichia coli NTBC121; assay: Whole-cell meropenem potentiation, CLSI broth microdilution MIC; assay type: cell-based; details: no inhibitor, E. coli NTBC121 (NDM-1)
Experimental: (§1) Minimal inhibitory concentrations (MIC) were determined using the Clinical Laboratory Standards Institute (CLSI) broth microdilution procedure. MBL-positive Enterobacteriaceae clinical isolates tested in the susceptibility study included NDM-1-producing strain E. coli NTBC121, VIM-1-producing strain K. pneumoniae NTBC055, and IMP-1-producing strain K. pneumoniae NTBC062. (Individual MICs for all strains tested are presented in Table 2 and Table 1 in the Supporting Information).

[6] = system: VIM-1-producing strain Klebsiella pneumoniae NTBC055; assay: as above; assay type: cell-based; details: no inhibitor, K. pneumoniae NTBC055 (VIM-1)
Experimental: as §1

[7] = system: IMP-1-producing strain K. pneumoniae NTBC062; assay: as above; assay type: cell-based, Klebsiella pneumoniae; details: no inhibitor, K. pneumoniae NTBC062 (IMP-1)
Experimental: as §1

[8] = 300 μM imipenem, read-out: NDM-1 IC50
[9] = 300 μM imipenem, 10 mM HEPES pH 7.5, 25 °C, average of at least two independent assays, read-out: VIM-1 IC50
[10] = 300 μM imipenem, 10 mM HEPES pH 7.5, 25 °C, average of at least two independent assays, read-out: IMP-1 IC50

NDM-1, sequence (C7C422 29-270, looked up, species assumed): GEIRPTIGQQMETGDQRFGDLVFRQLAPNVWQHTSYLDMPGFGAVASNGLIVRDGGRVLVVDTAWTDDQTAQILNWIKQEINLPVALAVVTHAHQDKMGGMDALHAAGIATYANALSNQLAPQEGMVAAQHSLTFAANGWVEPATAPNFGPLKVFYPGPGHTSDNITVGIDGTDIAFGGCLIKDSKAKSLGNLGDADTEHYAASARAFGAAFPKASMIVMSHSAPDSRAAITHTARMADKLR
IMP-1, sequence (P52699 19-246, looked up, species assumed): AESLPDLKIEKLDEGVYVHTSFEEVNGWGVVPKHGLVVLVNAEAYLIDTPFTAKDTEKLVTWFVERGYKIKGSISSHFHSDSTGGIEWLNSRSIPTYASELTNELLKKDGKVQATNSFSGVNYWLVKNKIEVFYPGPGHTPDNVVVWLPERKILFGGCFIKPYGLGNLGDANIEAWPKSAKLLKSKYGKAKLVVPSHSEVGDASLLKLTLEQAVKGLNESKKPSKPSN

Compound | pIC50 [1, 8] | pIC50 [2, 9] | pIC50 [3, 10] | other results
O=C(Cc1ccc(F)cc1)Nc1ccc(C(=O)O)nc1 [Compound 57] | 4.55 | < 3.70 | < 3.70 | 
O=C(O)c1ncsc1NS(=O)(=O)c1ccccn1 [Compound 75] |  |  |  | pIC50 ([1]; NDM-1 IC50, 300 μM imipenem): 4.89; pIC50 [2]: < 3.70; pIC50 [3]: 3.94; pIC50 [4]: 4.79
O=C(O)c1ccc(NS(=O)(=O)c2ccccc2)cn1 [Compound 59] | 5.66 | 3.96 | 3.94 | 
O=C(O)c1cccc(-c2ccoc2)n1 [Compound 15] |  |  |  | pIC50 ([1]; NDM-1 IC50, 300 μM imipenem): 3.79; pIC50 [2]: < 3.70; pIC50 [3]: < 3.70; pIC50 [4]: < 3.70
O=C(O)c1ncccc1NS(=O)(=O)Cc1ccccc1Cl [Compound 67] |  |  |  | pIC50 ([1]; NDM-1 IC50, 300 μM imipenem): 4.49; pIC50 [2]: 4.96
O=C(O)c1ccc(NS(=O)(=O)Cc2ccccc2)cn1 [Compound 58] | 5.40 | < 3.70 | < 3.70 | 
O=C(Cc1cccs1)Nc1cccc(C(=O)O)n1 [Compound 29] | < 3.70 | < 3.70 | < 3.70 | 
COc1cccc(CC(=O)Nc2ccnc(C(=O)O)c2)c1 [Compound 50] | 4.45 | < 3.70 | < 3.70 | 
N#Cc1cccc(S(=O)(=O)Nc2cccnc2C(=O)O)c1 [Compound 33] | 3.83 | < 3.70 | < 3.70 | 
CCCCC(=O)Nc1cccnc1C(=O)O [Compound 20] | 4.95 | < 3.70 | 3.81 | 
Cn1cnc(C(=O)O)c1 [Compound 8] |  |  |  | pIC50 ([1]; NDM-1 IC50, 300 μM imipenem): < 3.70; inhibition of NDM-1, in words [1]: no detectable inhibition; pIC50 [2]: < 3.70; inhibition of VIM-1, in words [2]: no detectable inhibition; pIC50 [3]: < 3.70; inhibition of IMP-1, in words [3]: no detectable inhibition; pIC50 [4]: < 3.70
C[C@@H](O)[C@H]1C(=O)N2C(C(=O)O)=C(S[C@@H]3CN[C@H](C(=O)N(C)C)C3)[C@H](C)[C@H]12 [meropenem, reference compound] |  |  |  | MIC ([5]; Escherichia coli): 32 µg/mL; MIC meropenem (no inhibitor) vs NTBC121 [5]: 32 µg/mL; MIC ([6]; Klebsiella pneumoniae): 16 µg/mL; MIC meropenem (no inhibitor) vs NTBC055 [6]: 16 µg/mL; MIC ([7]; Klebsiella pneumoniae): 4 µg/mL; MIC meropenem (no inhibitor) vs NTBC062 [7]: 4 µg/mL
O=C(O)c1ncccc1NS(=O)(=O)Cc1cccc(F)c1 [Compound 36] | < 3.70 | 3.97 | 3.82 | 
CCCCC(=O)Nc1cccc(C(=O)O)n1 [Compound 26] | 4.71 | < 3.70 | < 3.70 | 
O=C(O)c1cccc(C(=O)NCc2nccs2)n1 [Compound 48] | < 3.70 | < 3.70 | < 3.70 | 
O=C(Cc1c(Cl)cccc1Cl)Nc1cccc(C(=O)O)n1 [Compound 27] | < 3.70 | < 3.70 | 4.10 | 
O=C(O)c1cccc(NS(=O)(=O)Cc2ccccc2)n1 [Compound 46] | 4.36 | < 3.70 | < 3.70 | 
O=C(O)c1ncccc1-c1ccncc1 [Compound 12] |  |  |  | pIC50 ([1]; NDM-1 IC50, 300 μM imipenem): < 3.70; pIC50 [2]: < 3.70; pIC50 [3]: < 3.70; pIC50 [4]: < 3.70
O=C(Cc1c(Cl)cccc1Cl)Nc1cccnc1C(=O)O [Compound 21] | 5.05 | < 3.70 | < 3.70 | 
CCCCC(=O)Nc1ccnc(C(=O)O)c1 [Compound 51] | 4.94 | < 3.70 | < 3.70 | 
O=C(Cc1cccs1)Nc1ccnc(C(=O)O)c1 [Compound 53] | 4.37 | < 3.70 | < 3.70 | 
O=C(CCc1ccccc1)Nc1cccnc1C(=O)O [Compound 19] | 4.69 | < 3.70 | 4.47 | 
O=C(O)c1cc2ccccc2cn1 [Compound 11] |  |  |  | inhibition of NDM-1, in words [1]: modest inhibition; inhibition of VIM-1, in words [2]: no inhibition; inhibition of IMP-1, in words [3]: no inhibition
O=C(Cc1ccccc1)Nc1ccnc(C(=O)O)c1 [Compound 52] | 4.94 | < 3.70 | < 3.70 | 
O=C(Cc1ccc(Cl)c(Cl)c1)Nc1cccc(C(=O)O)n1 [Compound 28] | 5.45 | < 3.70 | 4.09 | 
